Measurements as given in US5112947A, “Peptides, and antidementia agents containing the same” (Nippon Chemiphar Co., Ltd., priority 1989, dated 1992).
Non-standard residues stand in square brackets, D forms with d. Residues, ends and D or L forms follow the SMILES beside them. *: point of attachment. Cys(free,S-linked) = N[C@@H](CS*)C(=O)O; pGlu = O=C1CC[C@@H](C(=O)O)N1; Aze = O=C(O)[C@@H]1CCN1

What follows are compounds tested on male Wistar rats (assay: one-trial passive avoidance test: improvement of experimental retrograde amnesia by cycloheximide). Conditions: dose 0.1 ng/kg, given 1 h before electro-shock (0.5 mA); cycloheximide 2.7 to 3.0 mg/kg s.c.; retention tested at 48 hours; control = cycloheximide alone.
Type: in vivo, rat
Protocol: 221, pp. […], 1983. […] At 48 hours after the administration was made, memory retention of the rats were tested.

Row | Compound | Effect (%): ratio of response latent period of each group to that of the control groups
1 | N=C(N)NCCC[C@H](NC(=O)[C@@H]1CCCN1C(=O)[C@H](CO)NC(=O)[C@@H]1CCCN1)C(=O)O [Example 27, H-Pro-Ser-Pro-Arg-OH acetate] (H-PSPR-OH) | 213%
2 | N=C(N)NCCC[C@H](NC(=O)[C@@H]1CCCN1C(=O)[C@H](CO)NC(=O)[C@H](CC(N)=O)NC(=O)[C@@H]1CCC(=O)N1)C(=O)NCC(N)=O [Example 21, pGlu-Asn-Ser-Pro-Arg-Gly-NH2 acetate] (HELM PEPTIDE1{[Glp].N.S.P.R.G.[am]}$$$$V2.0) | 353%

Same assay, conditions: dose 1 ng/kg, given 1 h before electro-shock (0.5 mA); cycloheximide 2.7 to 3.0 mg/kg s.c.; retention tested at 48 hours; control = cycloheximide alone

Row | Compound | Effect (%): ratio of response latent period of each group to that of the control groups
3 | N=C(N)NCCC[C@H](NC(=O)[C@@H]1CCCN1C(=O)[C@H](CSSC[C@H](N)C(=O)O)NC(=O)[C@@H]1CCCN1)C(=O)NCC(N)=O [Example 17] (H-PC(Cys(free,S-linked))PRG-NH2) | 365%
4 | N=C(N)NCCC[C@H](NC(=O)[C@@H]1CCCCN1C(=O)[C@H](CO)NC(=O)[C@@H](N)CC(N)=O)C(=O)O [Example 12, H-Asn Ser-Pip-Arg-OH acetate] (HELM PEPTIDE1{N.S.[O=C([C@@H]1CCCCN1[*:1])[*:2]].R}$$$$V2.0) | 235%
5 | C[C@H](NC(=O)[C@@H](N)CC(N)=O)C(=O)N1CCC[C@H]1C(=O)N[C@@H](CCCNC(=N)N)C(=O)O [Example 9, H-Asn-Ala-Pro-Arg-OH acetate] (H-NAPR-OH) | 460%
6 | N=C(N)NCCC[C@H](NC(=O)[C@@H]1CCN1C(=O)[C@H](CSSC[C@H](N)C(=O)O)NC(=O)[C@H](CC(N)=O)NC(=O)[C@@H]1CCC(=O)N1)C(=O)NCC(N)=O [Example 6] ([pGlu]NC(Cys(free,S-linked))[Aze]RG-NH2) | 239%
